Read-outs that look alike come from different tables or passages of the source.
Columns and labels:
[1] = biological target: full-length SHP2-E76K oncogenic mutant (Homo sapiens (Human), UniProt Q06124, E76K); experiment: DiFMUP fluorescence intensity phosphatase inhibition assay, SHP2-E76K; assay type: biochemical
Description: (§1) To test the synthesized compounds for their potential to inhibit SHP2 activity, a fluorescence intensity-based assay using 6,8-difluoro-4-methylumbelliferyl phosphate (DiFMUP) as the substrate was adapted for three recombinant SHP2 constructs: 1) the SHP2 catalytic domain (SHP2cat; residues 248-527), 2) the full-length SHP2-E76K oncogenic mutant, and 3) the full-length SHP2 wild-type (SHP2-WT). The recombinant SHP2 proteins were expressed and purified. A dually phosphorylated peptide derived from the insulin receptor substrate 1 (IRS-1) served as a surrogate binding protein and was used to activate SHP2-WT. […] Michaelis-Menten experiments to determine the DiFMUP Michaelis-Menten constant (Kmn) for each SHP2 construct were performed and yielded the following values: SHP2-WT, Km=60 μM; SHP2-E76K, Km=20 μM; SHP2cat, Km=20 μM. Relative maximum rates (Vmax) of the DiFMUP reactions were as follows: SHP2-WT, Vmax=871 AFU/min; SHP2-E76K, Vmax, =2730 AFU/min; SHP2cat, Vmax=2912 AFU/min. IC50 values for each compound were determined from initial rates in 10-point dose-response assays using DiFMUP at a concentration corresponding to its Km value for the respective SHP2 construct.
(§2) SHP2 inhibitors were tested at room temperature (RT) in a 384-well plate format standard phosphatase fluorescence intensity assay using DiFMUP (Invitrogen/Thermo Fisher Scientific, Carlsbad, CA) as a substrate and a total reaction volume of 25 μL. SHP2 inhibitors or vehicle (DMSO) were spotted in triplicate into a black Greiner FLUOTRAC™ 200 384-well microplate (#781076, Greiner) for a 10-point dose-response assay using an Echo®555 Liquid Handler (Labcyte, Inc., San Jose, CA). PTP working solutions were prepared at a 0.625 nM concentration (for a final concentration of 0.5 nM) in buffer containing 50 mM Bis-Tris pH 6.0, 50 mM NaCl, 5 mM DTT, and 0.01% Tween® 20. Prior to the assay, a dually phosphorylated insulin receptor substrate 1 (IRS-1) peptide [625 nM (500 nMfinal) (30)] was added to full-length WT SHP2 working solutions and incubated for 20 min. DiFMUP working solutions at 5× final concentration were prepared in 50 mM Bis-Tris pH 6.0, 50 mMNaCl, and 0.01% Tween 20. 20 μL of PTP working solution was dispensed into the microplate and incubated with inhibitor for 20 min at RT. […] The reaction was initiated by addition of 5 μL DiFMUP working solutions. Fluorescence intensity was measured in kinetic mode (every minute for 7 or 10 min) using a Tecan Spark® Multimode Microplate Reader (Tecan, Groedig, Austria) with an excitation wavelength of 360 nm and an emission wavelength of 460 nm. The initial rates were determined from the linear progression curves of the PTP reaction. The nonenzymatic hydrolysis of the substrate was corrected by using a control without addition of enzyme. IC50 values were calculated from the corrected initial rates by nonlinear regression using the program GraphPad Prism (GraphPad Software, Inc., San Diego, CA) Version 8. Dose-response inhibition assays of SHP2cat using the substrate OMFP were performed similarly as described above for DiFMUP. OMFP was used at a concentration corresponding to its Km value for SHP2cat (50 μM final). Fluorescence intensity was measured in kinetic mode (every minute for 10 min) using a Tecan Spark Multimode Microplate Reader with an excitation wavelength of 485 nm and an emission wavelength of 535 nm. Initial rates were determined and IC50 vales calculated as described above.

[2] = system: KYSE-520 esophageal cancer cells; experiment: Cell viability assay (CellTiter-Glo), KYSE-520; assay type: cell-based; conditions: KYSE-520 cells, various concentrations, 3 d
Description: (§3) Inhibition of SHP2 has been reported to inhibit the growth of cancer cells including Kasumi-1 acute myeloid leukemia (AML) and KYSE-520 esophageal cancer cells. […] Cell viability is shown as a percentage of the vehicle (DMSO) control and represents the mean±SD. B) #02 dose-response curves in cell viability assays using Kasumi-1, KYSE-520, MOLM-13, and […] cells after 3 d in culture. The percentages compared to DMSO vehicle control were curve fitted using nonlinear regression (log[inhibitor] vs. normalized response, variable slope) and represent the mean±SD. C) Cell viability of […] and MDA-MB-468 triple-negative breast cancer (TNBC) cells in the presence of various concentrations of #02 or the SHP2 allosteric inhibitor SHP099 after 5 d in culture. Cell viability is shown as a percentage of DMSO vehicle control, representing mean±SD, and curve fitted as in B). D) Colony formation assay (11 d) of […] and MDA-MB-468 TNBC cells in the presence of various concentrations of #02 or the SHP2 allosteric inhibitor SHP099. E) Phospho-ERK1/2 (p-ERK1/2) immunoblot analysis from total cell lysates of MOLM-13 AML cells treated with #02 at the indicated concentrations, or with SHP2 allosteric inhibitor RMC-4550 (RMC, 1 μM) for 3 h or 24 h. The quantitation of p-ERK1/2 levels is shown as the percentage of the DMSO (vehicle) control and represents data from three independent experiments (mean±SD). F) Viability of AML patient-derived cells in the presence of 10 μM #02 or 10 μM SHP2 allosteric inhibitor RMC-4550 after 2 d, 4 d, or 6 d in culture. Cell viability is shown as a percentage of the DMSO vehicle control and represents the mean±SD (*p<0.05; **p<0.01; ****p<0.0001; unpaired test with Welch's correction) G) Viability of MOLM-13 cells and MOLM-13-Cas9-mCherry cells with SHP2 knockout (KO) in the presence of #01, #02, and allosteric inhibitor SHP099 at various concentrations (10-point dose-response). The percentages compared to the DMSO vehicle control were curve fitted using nonlinear regression (log[inhibitor] vs. normalized response, variable slope) and represent the mean±SD. SHP2 protein levels in regular MOLM-13 cells (WT), MOLM-13-Cas9-mCherry cells (Cas9), and MOLM-13-Cas9-mCherry cells with SHP2 KO (SHP2 KO) were evaluated by immunoblot analysis using SHP2 antibodies.
(§4) Viability of AML, esophageal carcinoma, and TF-1 cells was assessed using the ATP-depletion assay CellTiter-Glo® (Promega). Cells were harvested at 1×10^6/mL to 2×10^6 cells/mL with cell numbers determined by trypan blue using the Countess Cell counter (Thermo Scientific) and resuspended in culture media. […] Luminescence was read on a Tecan Spark® Multimode Microplate Reader and data analyzed using Graph Pad Prism software.

[3] = system: Kasumi-1 acute myeloid leukemia (AML) cells; experiment: Cell viability assay (CellTiter-Glo), Kasumi-1; assay type: cell-based; conditions: Kasumi-1 cells, various concentrations, 3 d
Description: as §3, §4

[4] = biological target: full-length SHP2 wild-type (SHP2-WT) (Homo sapiens (Human), UniProt Q06124); experiment: DiFMUP fluorescence intensity phosphatase inhibition assay, SHP2-WT activated with IRS-1 peptide; assay type: biochemical; conditions: DiFMUP at Km (60 μM), IRS-1 peptide activated
Description: as §1, §2

Chain of full-length SHP2-E76K oncogenic mutant (Q06124 whole entry E76K, the tested form may be a part): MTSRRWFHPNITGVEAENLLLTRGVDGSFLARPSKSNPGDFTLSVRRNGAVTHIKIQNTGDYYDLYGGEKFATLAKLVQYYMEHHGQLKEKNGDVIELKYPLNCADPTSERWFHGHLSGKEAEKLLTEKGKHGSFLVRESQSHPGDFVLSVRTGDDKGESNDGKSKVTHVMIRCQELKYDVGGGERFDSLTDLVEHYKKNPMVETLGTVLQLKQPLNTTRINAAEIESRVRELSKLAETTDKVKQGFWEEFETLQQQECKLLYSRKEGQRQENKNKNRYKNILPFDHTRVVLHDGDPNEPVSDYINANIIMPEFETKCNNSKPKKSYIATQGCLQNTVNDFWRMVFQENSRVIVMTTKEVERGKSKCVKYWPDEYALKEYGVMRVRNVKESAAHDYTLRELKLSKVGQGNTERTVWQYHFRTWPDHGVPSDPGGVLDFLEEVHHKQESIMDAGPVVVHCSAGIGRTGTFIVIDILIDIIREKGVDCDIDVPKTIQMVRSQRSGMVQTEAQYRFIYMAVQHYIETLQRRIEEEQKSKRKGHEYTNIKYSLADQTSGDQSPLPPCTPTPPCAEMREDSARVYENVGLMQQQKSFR

- IC50 ([1]; DiFMUP at Km (20 μM), 10-point dose-response, read-out: SHP2-E76K IC50): ≥ 100 µM
- IC50 ([1]; inactive analog used as negative control, SHP2 construct not specified, read-out: SHP2 IC50): > 100 µM
- IC50 [4]: ≥ 100 µM
SMILES: CC(C)NC(=O)c1cccc(-c2ccc(/C=C3\Sc4ccccc4C3=O)o2)c1 [#20, (Z)—N-Isopropyl-3-(5-((3-oxobenzo[b]thiophen-2(3H)-ylidene)methyl)furan-2-yl)benzamide]
- effect on cancer cell growth [2]: no notable effects
- effect on cancer cell growth [3]: no notable effects
